From patent US20160271263A1 (Novo Nordisk A/S, priority 2010, published 2016)
Read-outs that look alike come from different tables or passages of the source. Numbered stars: 1 amine (or outer) side, 2 acyl side, 3 side chain; on linkers, the order of the positions; unused ones are H or OH. Side chains are listed from the residue outwards. Peptide text beside a SMILES is read from it. * marks the point of attachment. C18 diacid = O=C(O)CCCCCCCCCCCCCCCCC(=O)*; γGlu = O=C(O)[C@H](CCC(=O)[*:2])N[*:1]; AEEA = NCCOCCOCC(=O)O

Legend:
[1] = molecular target: T1, glucagon receptor (Homo sapiens, UniProt P47871); conditions: read-out: Assay (I) Glucagon [EC50]; Table 1; HEK-293 cells, end point data after 6 minutes
[2] = molecular target: DPP-IV (Homo sapiens, UniProt P27487); experiment: in vitro
Procedure: 10 μM of peptide was incubated with DPP-IV (2 μg/ml) in duplicate at 37° C. in a HEPES buffer to which 0.005% Tween20 were added. […] The samples were analysed by LC-MS for parent peptide. Data were plotted according to 1st kinetics and the stability was reported as half-lives.

[3] = in vivo; conditions: male, Sprague Dawley, rat, plasma
Procedure: Fifteen male rats (Sprague Dawley, 400 g, Taconic Europe) were divided into three groups of five rats. The rats were dosed at t=0 with either 15 nmol/kg IV, 30 nmol/kg SC, or 100 nmol/kg, respectively. The IV dosing was performed via the tail vein while the rats were shortly under isoflurane anaesthesia. […] Plasma samples were stored on freeze until analysed by LCMS.

[4] = molecular target: T1, glucagon receptor; experiment: cell-based
[5] = ThT fibrillation assay for physical stability (lag time and recovery); format: physicochemical; conditions: Table 2
Excerpt: This has traditionally been measured by visual inspection of the sample. However, that kind of measurement is very subjective and depending on the observer. Therefore, the application of a small molecule indicator probe is much more advantageous. […] Enzymol.
Here, F is the ThT fluorescence at the time t. […] The two important parameters describing fibril formation are the lag-time calculated by t0−2τ and the apparent rate constant kapp 1/τ.
Few of those intermediates nucleate to form a template onto which further intermediates may assembly and the fibrillation proceeds. The lag-time corresponds to the interval in which the critical mass of nucleus is built up and the apparent rate constant is the rate with which the fibril itself is formed.
Samples were prepared freshly before each assay. […] The pH of the sample was adjusted to the desired value using appropriate amounts of concentrated NaOH and HCl. Thioflavin T was added to the samples from a stock solution in H2O to a final concentration of 1 μM.
The plate was sealed with Scotch Pad (Qiagen).
Each run was initiated by incubating the plate at the assay temperature for 10 min. The plate was measured every 20 minutes for a desired period of time. Between each measurement, the plate was shaken and heated as described.
The supernatant was filtered through a 0.22 μm filter and an aliquot was transferred to a HPLC vial. […]

T1 sequence (P47871 26-477): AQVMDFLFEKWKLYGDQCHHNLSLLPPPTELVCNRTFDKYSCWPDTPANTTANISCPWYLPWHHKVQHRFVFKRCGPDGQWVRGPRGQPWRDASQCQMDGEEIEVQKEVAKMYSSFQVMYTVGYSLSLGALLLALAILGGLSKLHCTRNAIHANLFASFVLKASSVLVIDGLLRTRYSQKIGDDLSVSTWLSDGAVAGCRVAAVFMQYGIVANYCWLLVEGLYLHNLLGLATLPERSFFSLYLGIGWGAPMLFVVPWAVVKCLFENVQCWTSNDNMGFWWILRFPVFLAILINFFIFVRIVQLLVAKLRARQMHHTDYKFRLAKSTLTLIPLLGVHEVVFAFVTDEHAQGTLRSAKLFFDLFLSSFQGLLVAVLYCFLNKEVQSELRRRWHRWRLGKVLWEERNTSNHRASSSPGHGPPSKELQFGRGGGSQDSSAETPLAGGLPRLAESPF
Sequence of DPP-IV (P27487 whole entry, species assumed): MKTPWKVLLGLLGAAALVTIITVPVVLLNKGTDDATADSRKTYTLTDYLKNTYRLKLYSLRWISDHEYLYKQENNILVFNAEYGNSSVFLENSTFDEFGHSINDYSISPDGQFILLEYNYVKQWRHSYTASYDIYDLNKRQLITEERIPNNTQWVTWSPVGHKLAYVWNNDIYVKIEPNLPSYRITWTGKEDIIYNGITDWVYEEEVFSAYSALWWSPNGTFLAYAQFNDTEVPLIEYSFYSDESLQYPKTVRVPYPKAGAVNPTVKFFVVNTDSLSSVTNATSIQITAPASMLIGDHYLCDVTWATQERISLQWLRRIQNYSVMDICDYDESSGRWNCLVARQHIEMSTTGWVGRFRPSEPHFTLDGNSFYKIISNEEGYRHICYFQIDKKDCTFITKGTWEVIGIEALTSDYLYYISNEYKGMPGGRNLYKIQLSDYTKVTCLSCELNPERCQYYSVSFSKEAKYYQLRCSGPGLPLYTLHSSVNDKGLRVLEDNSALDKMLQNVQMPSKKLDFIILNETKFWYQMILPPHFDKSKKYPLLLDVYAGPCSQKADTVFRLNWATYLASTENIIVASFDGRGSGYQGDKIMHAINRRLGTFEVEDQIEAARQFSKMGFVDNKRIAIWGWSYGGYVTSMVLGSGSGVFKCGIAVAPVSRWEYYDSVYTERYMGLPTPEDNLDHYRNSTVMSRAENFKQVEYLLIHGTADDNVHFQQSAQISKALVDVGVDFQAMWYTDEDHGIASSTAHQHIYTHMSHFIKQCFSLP

EC50 [1] [pM]	EC50 [4] [pM]	SMILES	also measured
21		CC(C)C[C@H](NC(=O)[C@H](Cc1ccc(O)cc1)NC(=O)[C@H](CCCCN)NC(=O)[C@H](CO)NC(=O)[C@H](Cc1ccc(O)cc1)NC(=O)[C@H](CC(=O)O)NC(=O)[C@H](CO)NC(=O)[C@@H](NC(=O)[C@H](Cc1ccccc1)NC(=O)[C@@H](NC(=O)CNC(=O)[C@H](CCC(N)=O)NC(=O)[C@H](CO)NC(=O)[C@@H](N)Cc1c[nH]cn1)[C@@H](C)O)[C@@H](C)O)C(=O)N[C@@H](CC(=O)O)C(=O)N[C@@H](CO)C(=O)N[C@@H](CCCNC(=N)N)C(=O)N[C@@H](CCCNC(=N)N)C(=O)N[C@@H](C)C(=O)N[C@@H](CCC(N)=O)C(=O)N[C@@H](CCC(=O)O)C(=O)N[C@@H](Cc1ccccc1)C(=O)N[C@H](C(=O)N[C@@H](CCCCNC(=O)COCCOCCNC(=O)COCCOCCNC(=O)CC[C@H](NC(=O)CCCCCCCCCCCCCCCCC(=O)O)C(=O)O)C(=O)N[C@@H](Cc1c[nH]c2ccccc12)C(=O)N[C@@H](CC(C)C)C(=O)N[C@@H](CC(C)C)C(=O)N[C@@H](CC(N)=O)C(=O)N[C@H](C(=O)O)[C@@H](C)O)C(C)C [Example 21]	
109		CC(C)C[C@H](NC(=O)[C@H](Cc1ccc(O)cc1)NC(=O)[C@H](CCCNC(=N)N)NC(=O)[C@H](CO)NC(=O)[C@H](Cc1ccc(O)cc1)NC(=O)[C@H](CC(=O)O)NC(=O)[C@H](CO)NC(=O)[C@@H](NC(=O)[C@H](Cc1ccccc1)NC(=O)[C@@H](NC(=O)CNC(=O)[C@H](CCC(N)=O)NC(=O)[C@H](CO)NC(=O)[C@@H](N)Cc1c[nH]cn1)[C@@H](C)O)[C@@H](C)O)C(=O)N[C@@H](CC(=O)O)C(=O)N[C@@H](CO)C(=O)N[C@@H](CCCNC(=N)N)C(=O)N[C@@H](CCCNC(=N)N)C(=O)N[C@@H](C)C(=O)N[C@@H](CCC(N)=O)C(=O)N[C@@H](CC(=O)O)C(=O)N[C@@H](Cc1ccccc1)C(=O)N[C@H](C(=O)N[C@@H](CCCCNC(=O)COCCOCCNC(=O)COCCOCCNC(=O)CC[C@H](NC(=O)CCCCCCCCCCCCCCCCC(=O)O)C(=O)O)C(=O)N[C@@H](Cc1c[nH]c2ccccc12)C(=O)N[C@@H](CC(C)C)C(=O)N[C@@H](CC(C)C)C(=O)N[C@@H](CC(N)=O)C(=O)N[C@H](C(=O)O)[C@@H](C)O)C(C)C [Example 20] (H-HSQGTFTSDYSRYLDSRRAQDFVK([AEEA-AEEA-γGlu-C18 diacid])WLLNT-OH; N-terminus and C-terminus assumed)	
	3	CC(C)C[C@H](NC(=O)[C@H](Cc1ccc(O)cc1)NC(=O)[C@H](CCCCN)NC(=O)[C@H](CO)NC(=O)[C@H](Cc1ccc(O)cc1)NC(=O)[C@H](CC(=O)O)NC(=O)[C@H](CO)NC(=O)[C@@H](NC(=O)[C@H](Cc1ccccc1)NC(=O)[C@@H](NC(=O)CNC(=O)[C@H](CCC(N)=O)NC(=O)[C@H](CO)NC(=O)[C@@H](N)Cc1c[nH]cn1)[C@@H](C)O)[C@@H](C)O)C(=O)N[C@@H](CC(=O)O)C(=O)N[C@@H](CO)C(=O)N[C@@H](CCCCN)C(=O)N[C@@H](CCCNC(=N)N)C(=O)N[C@@H](C)C(=O)N[C@@H](CCC(N)=O)C(=O)N[C@@H](CCC(=O)O)C(=O)N[C@@H](Cc1ccccc1)C(=O)N[C@H](C(=O)N[C@@H](CCCCNC(=O)COCCOCCNC(=O)COCCOCCNC(=O)CC[C@H](NC(=O)CCCCCCCCCCCCCCCCC(=O)O)C(=O)O)C(=O)N[C@@H](Cc1c[nH]c2ccccc12)C(=O)N[C@@H](CC(C)C)C(=O)N[C@@H](CC(C)C)C(=O)N[C@@H](CCC(=O)O)C(=O)N[C@H](C(N)=O)[C@@H](C)O)C(C)C [Example 41, N^ε24-([2-[2-[2-[[2-[2-[2-[[(4S)-5-hydroxy-4-[(18-hydroxy-18-oxooctadecanoyl)amino]-5-oxopentanoyl]amino]ethoxy]ethoxy]acetyl]amino]ethoxy]ethoxy]acetyl])[Lys^17, Glu^21,Lys^24,Leu^27,Glu^28,]Glucagon peptide amide] (H-HSQGTFTSDYSKYLDSKRAQEFVK([AEEA-AEEA-γGlu-C18 diacid])WLLET-NH2; N-terminus assumed)	

More lines, now with the values behind:

SMILES	EC50 [1] [pM]	EC50 [4] [pM]	also measured
CC(C)C[C@H](NC(=O)[C@H](Cc1ccc(O)cc1)NC(=O)[C@H](CCCCN)NC(=O)[C@H](CO)NC(=O)[C@H](Cc1ccc(O)cc1)NC(=O)[C@H](CC(=O)O)NC(=O)[C@H](CO)NC(=O)[C@@H](NC(=O)[C@H](Cc1ccccc1)NC(=O)[C@@H](NC(=O)CNC(=O)[C@H](CCC(N)=O)NC(=O)[C@H](CO)NC(=O)[C@@H](N)Cc1c[nH]cn1)[C@@H](C)O)[C@@H](C)O)C(=O)N[C@@H](CC(=O)O)C(=O)N[C@@H](CO)C(=O)N[C@@H](CCCCN)C(=O)N[C@@H](CCCCN)C(=O)N[C@@H](C)C(=O)N[C@@H](CCC(N)=O)C(=O)N[C@@H](CCC(=O)O)C(=O)N[C@@H](Cc1ccccc1)C(=O)N[C@H](C(=O)N[C@@H](CCCCNC(=O)COCCOCCNC(=O)COCCOCCNC(=O)CC[C@H](NC(=O)CCCCCCCCCCCCCCCCC(=O)O)C(=O)O)C(=O)N[C@@H](Cc1c[nH]c2ccccc12)C(=O)N[C@@H](CC(C)C)C(=O)N[C@@H](CC(C)C)C(=O)N[C@@H](CC(N)=O)C(=O)N[C@H](C(=O)O)[C@@H](C)O)C(C)C [Example 3] (H-HSQGTFTSDYSKYLDSKKAQEFVK([AEEA-AEEA-γGlu-C18 diacid])WLLNT-OH)		19	half-life at 10 μM [2]: 4.33 h; half-life ([3]; iv, 15 nmol/kg): ~8.6 h; half-life ([3]; sc, 30 nmol/kg): ~9.4 h
CC(C)C[C@H](NC(=O)[C@H](Cc1ccc(O)cc1)NC(=O)[C@H](CCCCN)NC(=O)[C@H](CO)NC(=O)[C@H](Cc1ccc(O)cc1)NC(=O)[C@H](CC(=O)O)NC(=O)[C@H](CO)NC(=O)[C@@H](NC(=O)[C@H](Cc1ccccc1)NC(=O)[C@@H](NC(=O)CNC(=O)[C@H](CCC(N)=O)NC(=O)[C@H](CO)NC(=O)[C@@H](N)Cc1c[nH]cn1)[C@@H](C)O)[C@@H](C)O)C(=O)N[C@@H](CC(=O)O)C(=O)N[C@@H](CO)C(=O)N[C@@H](CCCNC(=N)N)C(=O)N[C@@H](CCCNC(=N)N)C(=O)N[C@@H](C)C(=O)N[C@@H](CCC(N)=O)C(=O)N[C@@H](CC(=O)O)C(=O)N[C@@H](Cc1ccccc1)C(=O)N[C@H](C(=O)N[C@@H](CCCCNC(=O)CC[C@H](NC(=O)CC[C@H](NC(=O)CC[C@H](NC(=O)CCCCCCCCCCCCCCCCC(=O)O)C(=O)O)C(=O)O)C(=O)O)C(=O)N[C@@H](Cc1c[nH]c2ccccc12)C(=O)N[C@@H](CC(C)C)C(=O)N[C@@H](CC(C)C)C(=O)N[C@@H](CO)C(=O)N[C@H](C(=O)O)[C@@H](C)O)C(C)C [Example 71, N^ε24-[(4S)-4-carboxy-4-[[(4S)-4-carboxy-4-[[(4S)-4-carboxy-4-(17-carboxyheptadecanoylamino)butanoyl]amino]butanoyl]amino]butanoyl]-[Lys^24,Leu^27,Ser^28]-Glucagon]		94	Th T assay [Lag time] [5]: 45 h
